Measurements from the NIST ThermoML archive (doi:10.1021/je100581m).

Assay: xn = mol fraction of the nth substance listed
Conditions: Liquid, Vibrating tube method

C=CC(C)(O)CCC=C(C)C (stereo not given) [3,7-dimethyl-1,6-octadien-3-ol] + CCO
mass density [kg/m3]
Conditions	x2 = 0	x2 = 0.1129	x2 = 0.1935	x2 = 0.3045	x2 = 0.4023	x2 = 0.5121	x2 = 0.6055	x2 = 0.7008	x2 = 0.8009	x2 = 0.9009
283.15 K, 100 kPa	869.2	866.8	865.6	862.7	859.9	855.3	850.3	843.1	832.7	818.2
283.15 K, 5000 kPa	872.3	869.9	868.7	866	863.1	858.5	853.5	846.5	836.3	822
283.15 K, 10000 kPa	875.2	872.9	871.7	869	866.1	861.6	856.8	849.7	839.6	825.5
283.15 K, 15000 kPa	878.2	875.9	874.8	872.1	869.2	864.8	860.1	853	843.1	829.2
283.15 K, 20000 kPa	881	878.8	877.6	874.9	872.1	867.7	862.9	856.1	846.3	832.5
298.15 K, 100 kPa	856.9	854.5	853.4	850.5	847.6	843	838	830.9	820.6	805.9
298.15 K, 5000 kPa	860.1	857.8	856.7	853.9	851	846.5	841.4	834.6	824.4	809.9
298.15 K, 10000 kPa	863.5	861.1	860	857.2	854.4	850	845.1	838.2	828.1	813.9
298.15 K, 15000 kPa	866.6	864.3	863.2	860.5	857.7	853.2	848.4	841.6	831.7	817.7
298.15 K, 20000 kPa	869.6	867.4	866.3	863.6	860.8	856.4	851.7	844.9	835.1	821.3
313.15 K, 100 kPa	844.1	841.7	840.6	837.8	834.7	830.2	825.3	818	807.9	793.2
313.15 K, 5000 kPa	847.8	845.4	844.4	841.6	838.6	834.1	829.3	822.3	812.1	797.7
313.15 K, 10000 kPa	851.3	849	847.9	845.2	842.3	837.8	833.1	826.1	816.1	801.9
313.15 K, 15000 kPa	854.8	852.5	851.4	848.7	845.8	841.4	836.7	829.8	820	806
313.15 K, 20000 kPa	858.1	855.8	854.8	852.1	849.2	844.9	840.2	833.4	823.7	809.8
328.15 K, 100 kPa	831.3	828.9	827.8	824.9	821.8	817.3	812.3	805.2	794.9	780.2
328.15 K, 5000 kPa	835.2	832.9	831.8	828.9	825.9	821.4	816.6	809.5	799.4	784.9
328.15 K, 10000 kPa	839.1	836.9	835.8	832.9	829.9	825.5	820.6	813.9	803.9	789.6
328.15 K, 15000 kPa	842.7	840.5	839.4	836.6	833.7	829.3	824.5	817.8	808	793.9
328.15 K, 20000 kPa	846.3	844.1	843	840.3	837.3	833	828.4	821.6	811.9	798.1
